Patent US20050228050A1, “Novel stable crystals of substituted phenylpropionic acid derivative and process for producing the same” (priority 2001, published 2005)

What was measured:
[1] = Hygroscopicity of crystals; format: physicochemical; details: stated without described test
[2] = Differential thermal analysis (DTA) and thermogravimetry (TG) of crystals; format: physicochemical
Procedure: Differential Thermal Analysis (DTA) and Thermogravimetry (TG)
The thermal stability of crystals was compared by using apparatus for thermal analysis (SII: TG/DTA6200). […] With the new type crystals, the endothermic phenomenon due to transition was seen from 131.4° C. and the endothermic peak due to melting was shown at 132.0° C.

Structure (SMILES): CC[C@@H](Cc1ccc(OC)c(C(=O)NCc2ccc(Oc3ccc(F)cc3)cc2)c1)C(=O)O [new type crystals, (S)-2-[[3-[N-[4-[(4-fluorophenoxy)phenyl]methyl]-carbamoyl]-4-methoxyphenyl]methyl]butanoic acid]
- hygroscopicity [1]: no hygroscopicity
- weight change in thermogravimetry ([2]; TG/DTA6200 thermal analysis, FIG. 3 and 4): no weight change
- thermal stability of crystals ([2]; conclusion from DTA/TG comparison of new and old type crystals): thermally stable
